By IC50 is commonly meant the midpoint of a concentration-inhibition curve.

Holding throughout (type): biochemical
The target in one test is human PDE1A (Homo sapiens (Human), UniProt P54750). As to the kind of experiment: Ca2+-calmodulin dependent PDE enzyme assay (radiometric SPA, [3H]cAMP). The note with it: Mean ± standard deviation; [3H]cAMP 47 nM; read-out: PDE 1A IC50. An excerpt: (§1) The nucleotide sequences encoding full-length human PDE1A (NP_001003683.1) and PDE1C (NP_005011.1) are inserted into pFastBac1 (Invitrogen) vector with an N-terminal HIS tag. The nucleotide sequences encoding full-length human PDE4D (NP_006194.2) and catalytic domain (residue 641-1141) of PDE3A (NP_000912.3) are inserted into pFastBac1 (Invitrogen) vector with a C-terminal HIS tag. The nucleotide sequences encoding full-length human PDE6A (NP_000431.2) and PDE6B (AAH00249.1) are inserted into pFastBacDual (Invitrogen) vector with an N-terminal HIS tag and N-terminal Flag tag, respectively, for production of PDE6A/6B dimer. Baculovirus generation and protein expression in Sf9 cells are carried out according to the protocol of Bac-to-Bac Baculovirus Expression system (Invitrogen). The nucleotide sequence encoding full-length human PDE1B (NP_000915.1) is inserted into pIEX4 (Novagen) with a C-terminal HIS tag, and both protein productions in Sf9 cells are carried out according to the vendor's protocol (Novagen). The His tagged PDE proteins are purified using Ni-NTA agarose (Qiagen) followed by size exclusion chromatography on a SUPERDEX© 200 column (GE Healthcare) in storage buffer (20 mM Tris-HCl, pH 7.5, 150 mM NaCl, 10% Glycerol). The Flag tagged PDE proteins including PDE6A/6B are purified using anti-Flag M2-agarose (Sigma), after purification through NiNTA column chromatography and eluted in storage buffer (50 mM Tris-HCl, pH 7.5, 150 mM NaCl, 10% Glycerol, 0.1 mg/ml Flag peptide). All purified proteins are stored at −80° C. in small aliquots.
(§2) All 3′, 5′ cyclic nucleotide PDE enzyme activities are measured with a radiometric enzyme assay based on SPA detection system. Compounds to be tested are diluted in pure DMSO using ten point concentration response curves. Maximal compound concentration in the reaction mixture is either 10 or 100 μM. Compounds at the appropriate concentration are pre-incubated with either of the PDE enzymes for 30 minutes before the reaction is started by the addition of substrate. Reactions are allowed to proceed for 60 minutes at room temperature. Next, reactions are stopped by addition of SPA beads. Samples are read 12 hours later in a MICROBETA™ TRILUX© Counter. IC50 values are calculated by plotting the normalized data vs. log [compound] and fitting the data using a four parameter logistic equation.
(§3) PDE1B, PDE1A, and PDE1C are cloned and purified following standard protein generation procedures. […] The final enzyme concentration is 0.25, 0.074 and 0.0012 nM, for PDE1A, PDE1B and PDE1C respectively. The reactions are started by addition of the substrate, [^3H]cAMP, to give a final concentration of 47 nM.

The target in the next test is human PDE1B (Homo sapiens (Human), UniProt Q01064). Described as above. The note with it: Mean ± standard deviation; [3H]cAMP 47 nM; read-out: PDE 1B IC50.
From the text: as §1, §2, §3

The target in a further test is human PDE1C (Homo sapiens (Human), UniProt Q14123). The description is as above. The settings on record: Mean ± standard deviation; [3H]cAMP 47 nM; read-out: PDE 1C IC50.
From the text: as §1, §2, §3

The target of test [1] is human PDE3A (catalytic domain) (Homo sapiens (Human), UniProt Q14432). Nature of the test: PDE enzyme assay using [3H]cAMP as substrate (SPA). The note with it: [3H]cAMP 47 nM.
Chain of human PDE3A (catalytic domain) (Q14432 641-1141): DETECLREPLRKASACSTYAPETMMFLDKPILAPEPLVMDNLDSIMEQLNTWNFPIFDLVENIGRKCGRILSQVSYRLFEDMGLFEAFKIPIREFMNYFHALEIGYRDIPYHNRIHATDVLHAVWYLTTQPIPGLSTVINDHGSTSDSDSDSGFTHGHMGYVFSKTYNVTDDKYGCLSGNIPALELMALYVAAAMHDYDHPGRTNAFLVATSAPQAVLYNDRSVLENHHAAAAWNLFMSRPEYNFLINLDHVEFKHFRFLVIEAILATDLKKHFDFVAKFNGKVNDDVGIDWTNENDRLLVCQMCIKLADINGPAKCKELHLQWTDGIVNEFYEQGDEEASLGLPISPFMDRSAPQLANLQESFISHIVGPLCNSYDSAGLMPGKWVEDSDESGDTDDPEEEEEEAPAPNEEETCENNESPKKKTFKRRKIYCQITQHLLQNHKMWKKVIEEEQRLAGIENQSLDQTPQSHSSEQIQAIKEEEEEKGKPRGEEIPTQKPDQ
From the text: as §1, §2
(§4) The following PDE activities are measured using [3H]cAMP as reaction substrate: human PDE3A (catalytic domain) and human PDE4D. Both enzymes are cloned and purified following standard procedures. The assay buffer is prepared to give a final concentration in the assay of 50 mM Tris-HCl, 8.3 mM MgCl2, 1.7 mM EDTA and 0.1% BSA at pH 7.5. Final enzyme concentrations are 0.008 and 0.021 nM for PDE3A and PDE4D, respectively. Reactions are started by addition of the substrate, [3H]cAMP, to give a final concentration of 47 nM.

Another test has as its target human PDE4D (Homo sapiens (Human), UniProt Q08499). Nature of the test: PDE enzyme assay using [3H]cAMP as substrate (SPA). The settings on record: Mean ± standard deviation; [3H]cAMP 47 nM.
From the text: as §1, §2, §4

For a further test, the target named is human PDE6A/6B (Homo sapiens (Human), UniProt P16499+P35913). As to the kind of experiment: PDE enzyme assay using [3H]cGMP as substrate (SPA). The settings on record: [3H]cGMP 80 nM; read-out: PDE6AB IC50.
Chain of human PDE6A/6B (P16499 whole entry): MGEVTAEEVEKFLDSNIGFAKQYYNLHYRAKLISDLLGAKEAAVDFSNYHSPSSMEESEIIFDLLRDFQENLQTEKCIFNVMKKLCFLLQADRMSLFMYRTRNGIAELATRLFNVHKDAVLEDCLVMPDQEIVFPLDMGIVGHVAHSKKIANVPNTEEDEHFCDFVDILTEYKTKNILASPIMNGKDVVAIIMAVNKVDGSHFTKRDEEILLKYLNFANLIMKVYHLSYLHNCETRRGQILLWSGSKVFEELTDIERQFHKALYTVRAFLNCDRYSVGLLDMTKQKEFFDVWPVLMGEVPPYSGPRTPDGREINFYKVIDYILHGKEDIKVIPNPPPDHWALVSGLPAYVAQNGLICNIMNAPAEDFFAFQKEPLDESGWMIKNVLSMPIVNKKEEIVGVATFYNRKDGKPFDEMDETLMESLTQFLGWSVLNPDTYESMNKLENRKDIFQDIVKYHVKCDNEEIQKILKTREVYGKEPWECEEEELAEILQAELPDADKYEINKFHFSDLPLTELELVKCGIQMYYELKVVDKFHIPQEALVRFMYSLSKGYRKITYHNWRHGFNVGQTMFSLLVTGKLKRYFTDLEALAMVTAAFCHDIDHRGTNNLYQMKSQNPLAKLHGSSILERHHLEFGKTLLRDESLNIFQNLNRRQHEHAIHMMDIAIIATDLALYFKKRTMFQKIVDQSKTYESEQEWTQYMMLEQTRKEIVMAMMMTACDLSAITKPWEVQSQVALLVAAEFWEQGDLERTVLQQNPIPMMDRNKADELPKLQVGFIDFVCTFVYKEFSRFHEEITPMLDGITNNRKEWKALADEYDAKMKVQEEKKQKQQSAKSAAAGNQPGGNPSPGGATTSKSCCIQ
Chain of human PDE6A/6B (P35913 whole entry): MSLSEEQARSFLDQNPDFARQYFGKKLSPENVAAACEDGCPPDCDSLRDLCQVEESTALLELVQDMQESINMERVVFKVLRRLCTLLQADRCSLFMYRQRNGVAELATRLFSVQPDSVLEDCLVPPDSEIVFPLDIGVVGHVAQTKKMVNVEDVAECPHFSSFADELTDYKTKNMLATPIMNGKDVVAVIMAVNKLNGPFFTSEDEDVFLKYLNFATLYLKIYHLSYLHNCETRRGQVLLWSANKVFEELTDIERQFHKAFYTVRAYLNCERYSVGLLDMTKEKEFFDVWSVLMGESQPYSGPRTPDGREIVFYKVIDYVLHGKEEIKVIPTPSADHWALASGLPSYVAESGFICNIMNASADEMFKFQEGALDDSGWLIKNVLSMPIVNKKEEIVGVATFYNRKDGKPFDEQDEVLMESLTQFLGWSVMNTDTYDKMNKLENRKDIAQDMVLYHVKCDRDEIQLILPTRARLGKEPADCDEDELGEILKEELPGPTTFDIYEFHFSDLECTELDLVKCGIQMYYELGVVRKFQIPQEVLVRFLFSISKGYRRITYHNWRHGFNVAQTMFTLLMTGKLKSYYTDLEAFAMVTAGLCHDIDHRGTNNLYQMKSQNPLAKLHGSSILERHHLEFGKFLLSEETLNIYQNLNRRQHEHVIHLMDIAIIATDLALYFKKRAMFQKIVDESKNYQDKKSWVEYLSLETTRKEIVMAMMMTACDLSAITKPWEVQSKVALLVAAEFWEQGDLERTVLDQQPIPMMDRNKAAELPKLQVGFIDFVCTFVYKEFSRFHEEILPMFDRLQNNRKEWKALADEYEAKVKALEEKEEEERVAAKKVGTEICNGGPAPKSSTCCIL
From the text: as §1, §2
The following phosphodiesterase activities are measured using [3H]cGMP as reaction substrate: human PDE6A/6B. The catalytic active form of human PDE6 is a dimer composed of an a (human PDE6A) and […] (human PDE6B). The dimer of human PDE6A/6B is produced by the coexpression and purification strategy, using two purification steps, i.e., NiNTA and anti-FLAG Sepharose chromatography. The assay buffer is prepared to give a final concentration in the assay of 50 mM Tris-HCl, 8.3 mM MgCl2, 1.7 mM EDTA and 0.1% BSA at pH 7.5. The final enzyme concentration is 5 nM. The reactions are started by addition of the substrate, [3H]cGMP, to give a final concentration of 80 nM.

Some results are limits rather than exact numbers.

Chain of human PDE4D (Q08499 other isoform, or with tags, fused parts or gaps): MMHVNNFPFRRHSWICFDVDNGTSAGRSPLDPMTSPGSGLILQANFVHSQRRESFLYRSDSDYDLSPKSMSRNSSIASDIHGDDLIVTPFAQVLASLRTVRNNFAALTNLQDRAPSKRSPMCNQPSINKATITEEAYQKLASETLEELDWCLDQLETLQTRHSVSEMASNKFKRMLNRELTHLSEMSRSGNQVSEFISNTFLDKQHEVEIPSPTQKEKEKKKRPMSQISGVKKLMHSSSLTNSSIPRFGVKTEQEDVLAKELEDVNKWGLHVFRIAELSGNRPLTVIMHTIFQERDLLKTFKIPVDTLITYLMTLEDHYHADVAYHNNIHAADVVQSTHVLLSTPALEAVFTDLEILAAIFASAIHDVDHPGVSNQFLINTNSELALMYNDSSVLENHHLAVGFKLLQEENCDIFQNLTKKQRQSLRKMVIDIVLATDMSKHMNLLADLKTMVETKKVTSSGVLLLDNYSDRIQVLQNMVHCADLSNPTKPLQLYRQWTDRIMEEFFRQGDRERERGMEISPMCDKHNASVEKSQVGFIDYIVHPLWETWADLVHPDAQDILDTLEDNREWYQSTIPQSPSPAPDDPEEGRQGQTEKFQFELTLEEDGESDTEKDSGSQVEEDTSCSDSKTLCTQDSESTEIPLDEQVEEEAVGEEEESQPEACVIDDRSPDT

Regarding `CCCCCn1c(C)c(C)n2c(C3(C4CC4)CC3)nnc2c1=O` [Example 3, 3-(1-Cyclopropylcyclopropyl)-5,6-dimethyl-7-pentyl-[1,2,4]triazolo[4,3-a]pyrazin-8-one], the IC50 at human PDE1A was 0.011 ± 0.002 µM; at human PDE1B it was 0.00936 ± 0.00201 µM; on human PDE1C, 0.00126 ± 0.00061 µM; in test [1], greater than 100 µM; against human PDE4D, 14.3 µM; on human PDE6A/6B, greater than 10 µM.
Take `Cc1c(C)n2c(C3(C4CC4)CC3)nnc2c(=O)n1CC1CCC1` [Example 4, 7-(Cyclobutylmethyl)-3-(1-cyclopropylcyclopropyl)-5,6-dimethyl-[1,2,4]triazolo[4,3-a]pyrazin-8-one]: the IC50 at human PDE1A was 0.00371 ± 8e-05 µM; on human PDE1B, 0.00365 ± 0.00188 µM; at human PDE1C, 0.00106 ± 0.00024 µM; in test [1] it was greater than 100 µM; at human PDE4D, 24 µM; at human PDE6A/6B, greater than 10 µM.
Regarding `Cc1c(C)n2c(C3(C)CC3)nnc2c(=O)n1CC1CCCCO1` (single isomer, unassigned) [Example 14, 5,6-Dimethyl-3-(1-methylcyclopropyl)-7-(tetrahydropyran-2-ylmethyl)-[1,2,4]triazolo[4,3-a]pyrazin-8-one], the IC50 is greater than 100 µM in test [1], 40.8 µM against human PDE4D and greater than 10 µM at human PDE6A/6B.
In the case of `CCCCn1c(C)c(C)n2c(C3(C4CC4)CC3)nnc2c1=O` [Example 5, 7-Butyl-3-(1-cyclopropylcyclopropyl)-5,6-dimethyl-[1,2,4]triazolo[4,3-a]pyrazin-8-one], the IC50 at human PDE1A is 0.0115 ± 0.0036 µM; at human PDE1B, 0.0111 ± 0.003 µM; on human PDE1C, 0.0027 ± 0.00016 µM; in test [1] it was greater than 100 µM; against human PDE4D, 29.9 µM; on human PDE6A/6B, greater than 10 µM.
In the case of `Cc1c(C)n2c(C3(C)CC3)nnc2c(=O)n1CC1CCCCO1` (single isomer, unassigned) [Example 13, 5,6-Dimethyl-3-(1-methylcyclopropyl)-7-(tetrahydropyran-2-ylmethyl)-[1,2,4]triazolo[4,3-a]pyrazin-8-one], the concentration for half-maximal inhibition (IC50) in test [1] is greater than 100 µM; against human PDE4D, greater than 100 µM; at human PDE6A/6B, greater than 10 µM.
`Cc1c(C)n2c(C3(C4CC4)CC3)nnc2c(=O)n1CC1CCCCO1` (single isomer, unassigned) [Example 10]: the IC50 at human PDE1C was 0.002 ± 0.000311 µM; in test [1], greater than 100 µM; against human PDE4D, 21.4 µM; on human PDE6A/6B, greater than 10 µM.
The like results for `Cc1c(C)n2c(C3(C4CC4)CC3)nnc2c(=O)n1CC1CCCCO1` (racemic) [Example 6, 3-(1-cyclopropylcyclopropyl)-5,6-dimethyl-7-(tetrahydropyran-2-ylmethyl)-[1,2,4]triazolo[4,3-a]pyrazin-8-one] were, in that order, 0.00188 ± 0.00056 µM, greater than 100 µM, 30.9 µM and greater than 10 µM.
With `CCC1(c2nnc3c(=O)n(CC4CCCCO4)c(C)c(C)n23)CC1` (single isomer, unassigned) [Example 11, 3-(1-Ethylcyclopropyl)-5,6-dimethyl-7-(tetrahydropyran-2-ylmethyl)-[1,2,4]triazolo[4,3-a]pyrazin-8-one], the IC50 at human PDE1A was 0.0132 µM; on human PDE1C, 0.00477 ± 6e-05 µM; in test [1] it was greater than 100 µM; on human PDE4D, 67.2 µM; on human PDE6A/6B, greater than 10 µM.
Consider `CCC1(c2nnc3c(=O)n(CC4CCCCO4)c(C)c(C)n23)CC1` (single isomer, unassigned) [Example 12, 3-(1-Ethylcyclopropyl)-5,6-dimethyl-7-(tetrahydropyran-2-ylmethyl)-[1,2,4]triazolo[4,3-a]pyrazin-8-one], for which the IC50 was 0.0446 µM on human PDE1A; 0.0132 µM at human PDE1C; greater than 100 µM in test [1]; 31 µM against human PDE4D; 7.62 µM on human PDE6A/6B.
Turning to `CCCCn1c(C)c(CC)n2c(C3(C4CC4)CC3)nnc2c1=O` [Example 16, 7-Butyl-3-(1-cyclopropylcyclopropyl)-5-ethyl-6-methyl-[1,2,4]triazolo[4,3-a]pyrazin-8-one], the IC50 at human PDE1A was 0.00867 ± 0.00791 µM; at human PDE1B it was 0.00654 ± 0.00261 µM; on human PDE1C it was 0.0012 ± 0.00094 µM; in test [1], greater than 100 µM; on human PDE4D, 22.3 µM; on human PDE6A/6B, greater than 10 µM.
Take `CCC1(c2nnc3c(=O)n(CC4CCCCO4)c(C)c(C)n23)CC1` (racemic) [Example 7, 3-(1-Ethylcyclopropyl)-5,6-dimethyl-7-(tetrahydropyran-2-ylmethyl)-[1,2,4]triazolo[4,3-a]pyrazin-8-one]: the IC50 was 0.00776 µM at human PDE1C, greater than 100 µM in test [1], 46.5 µM at human PDE4D and greater than 10 µM at human PDE6A/6B.
Turning to `Cc1c(C)n2c(C3(C4CC4)CC3)nnc2c(=O)n1CC1CC1` [Example 2, 3-(1-Cyclopropylcyclopropyl)-7-(cyclopropylmethyl)-5,6-dimethyl-[1,2,4]triazolo[4,3-a]pyrazin-8-one], the IC50 on human PDE1A was 0.00373 ± 0.00202 µM; at human PDE1B, 0.00411 ± 0.0011 µM; on human PDE1C, 0.00281 ± 0.00088 µM; in test [1], greater than 100 µM; against human PDE4D, 23.8 ± 0.8 µM; on human PDE6A/6B it was greater than 10 µM.
For `Cc1c(C)n2c(C3(C4CC4)CC3)nnc2c(=O)n1CC1(C)CC1` [Example 15, 3-(1-Cyclopropylcyclopropyl)-5,6-dimethyl-7-[(1-methylcyclopropyl)methyl]-[1,2,4]triazolo[4,3-a]pyrazin-8-one], the IC50 at human PDE1A was 0.0031 ± 0.0011 µM; at human PDE1B, 0.0049 ± 0.0018 µM; on human PDE1C, 0.0014 ± 0.0003 µM; in test [1], 9.6 µM; against human PDE4D, 14 ± 1.3 µM; on human PDE6A/6B, greater than 10 µM.
Consider `Cc1c(C)n2c(C3(C4CC4)CC3)nnc2c(=O)n1CC1CCCCO1` (single isomer, unassigned) [Example 9, 3-(1-Cyclopropylcyclopropyl)-5,6-dimethyl-7-(tetrahydropyran-2-ylmethyl)-[1,2,4]triazolo[4,3-a]pyrazin-8-one], for which the IC50 at human PDE1C was 0.000958 ± 0.000487 µM; in test [1], greater than 100 µM; on human PDE4D, 33.1 µM; on human PDE6A/6B, greater than 10 µM.
Regarding `Cc1c(C)n2c(C3(C)CC3)nnc2c(=O)n1CC1CCCCO1` (racemic) [Example 8, 5,6-Dimethyl-3-(1-methylcyclopropyl)-7-(tetrahydropyran-2-ylmethyl)-[1,2,4]triazolo[4,3-a]pyrazin-8-one], the IC50 in test [1] was greater than 100 µM; at human PDE4D, 57.7 µM; at human PDE6A/6B it was 2.66 µM.
